ChEMBL document CHEMBL1146557, “An antiinflammatory galactolipid from rose hip (Rosa canina) that inhibits chemotaxis of human peripheral blood neutrophils in vitro” (J Nat Prod, 2003)

What was measured:
[1] = Inhibition of chemotaxis in human polymorphonuclear leukocytes assessed as inhibition of migration towards zymosan-activated human serum at 50 ug/ml after 30 mins by Boyden chamber technique; type: functional; details: 0.5 h
[2] = Inhibition of chemotaxis in human polymorphonuclear leukocytes assessed as inhibition of migration towards zymosan-activated human serum at 100 ug/ml after 30 mins by Boyden chamber technique; type: functional; details: 0.5 h
[3] = Inhibition of chemotaxis in human polymorphonuclear leukocytes assessed as inhibition of migration towards zymosan-activated human serum at 10 ug/ml after 30 mins by Boyden chamber technique; type: functional; details: 0.5 h
[4] = Cytotoxicity against human polymorphonuclear leukocyte assessed as cell viability at 50 to 100 ug/ml by trypan blue exclusion method; details: polymorphonuclear leukocytes, read-out: INH
[5] = Inhibition of chemotaxis in human polymorphonuclear leukocytes assessed as inhibition of migration towards zymosan-activated human serum at 0.1 ug/ml after 30 mins by Boyden chamber technique; type: functional; details: 0.5 h
[6] = Inhibition of chemotaxis in human polymorphonuclear leukocytes assessed as inhibition of migration towards zymosan-activated human serum at 1 ug/ml after 30 mins by Boyden chamber technique; type: functional; details: 0.5 h

With `CC/C=C\C/C=C\C/C=C\CCCCCCCC(=O)OC[C@H](CO[C@@H]1O[C@H](CO)[C@H](O)[C@H](O)C1O)OC(=O)CCCCCCC/C=C\C/C=C\C/C=C\CC` (single isomer, unassigned) the inhibition at 50 µg/mL [1] was 77%, the inhibition at 100 µg/mL [2] was 82% and the inhibition at 10 µg/mL [3] was 62%. The viability [4] was 100%, the inhibition at 0.1 µg/mL [5] was 7% and the inhibition at 1 µg/mL [6] was 64%.
